The target in this assay is T1, OCT1 (organic cation transporter 1) (Homo sapiens, UniProt O15245).
T1 construct: gene SLC22A1
T1 sequence (O15245 1-554): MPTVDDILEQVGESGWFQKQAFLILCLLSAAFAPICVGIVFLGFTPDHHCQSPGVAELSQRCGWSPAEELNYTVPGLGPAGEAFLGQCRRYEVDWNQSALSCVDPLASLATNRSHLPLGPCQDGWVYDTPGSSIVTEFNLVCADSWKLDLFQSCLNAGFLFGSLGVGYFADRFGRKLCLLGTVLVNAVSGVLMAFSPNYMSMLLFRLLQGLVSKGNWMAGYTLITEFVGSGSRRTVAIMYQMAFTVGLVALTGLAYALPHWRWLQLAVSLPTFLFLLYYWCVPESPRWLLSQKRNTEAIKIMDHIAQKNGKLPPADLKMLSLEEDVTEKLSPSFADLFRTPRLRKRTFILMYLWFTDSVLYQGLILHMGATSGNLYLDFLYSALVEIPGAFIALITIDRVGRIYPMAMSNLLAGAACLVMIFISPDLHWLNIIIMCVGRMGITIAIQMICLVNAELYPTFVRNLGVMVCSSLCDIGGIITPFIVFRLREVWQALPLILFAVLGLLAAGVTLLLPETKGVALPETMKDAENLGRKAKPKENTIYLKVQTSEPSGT
In words: inhibition of metformin uptake in HEK293-Flp-In-OCT1 cells, […] min pre-incubation, UPLC-MS/MS. It is filed as cell-based.

A word on the IC50: it is the concentration that gives 50% inhibition.

The compound `O[C@@H](COc1cccc2ncccc12)CN1CCN([C@@H]2c3ccccc3[C@@H]3[C@H](c4ccccc42)C3(F)F)CC1` [zosuquidar] returned a concentration for half-maximal inhibition (IC50) of 7.5 ± 3.7 µM.

The values above are taken from PMC12125102, “The “specific” P-glycoprotein inhibitor zosuquidar (LY335979) also weakly inhibits human organic cation transporters” (Naunyn-Schmiedeberg's Archives of Pharmacology, 2024).
